In ChEMBL document CHEMBL1143211, “Inhibitors of proteases and amide hydrolases that employ an alpha-ketoheterocycle as a key enabling functionality” (Bioorg Med Chem, 2008):
Where a SMILES comes first, the peptide text is derived from it. [ ]: non-standard residue; d: D form. The star is where a group is joined. Pyrazinecarbonyl = O=C(c1cnccn1)*; Hyp = O=C(O)[C@@H]1C[C@@H](O)CN1; Abu = CC[C@H](N)C(=O)O; Bn = c1ccc(C*)cc1

How the values were obtained:
[1] = Inhibition of Trypanosoma cruzi prolyl endopeptidase Tc80
[2] = Inhibition of Staphylococcus aureus methionine aminopeptidase
Platelet = assay: Antithrombotic activity assessed as inhibition of alpha-thrombin-induced human platelet aggregation; assay type: functional, cell-based
Canis familiaris = assay: Antithrombotic activity in iv dosed dog areteriovenous shunt model assessed as inhibition of thrombus accumulation; assay type: functional; details: Canis lupus familiaris
Chymase = Chymase (Homo sapiens, UniProt P23946)
Chain of Chymase (P23946 whole entry): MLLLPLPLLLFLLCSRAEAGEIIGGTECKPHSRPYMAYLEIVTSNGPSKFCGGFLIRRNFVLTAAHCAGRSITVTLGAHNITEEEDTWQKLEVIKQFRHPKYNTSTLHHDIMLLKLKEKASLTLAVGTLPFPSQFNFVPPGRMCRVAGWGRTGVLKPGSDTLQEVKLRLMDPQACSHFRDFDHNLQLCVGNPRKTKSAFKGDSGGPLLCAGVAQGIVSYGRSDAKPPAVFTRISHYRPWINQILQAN

Coagulation factor X = Coagulation factor X (Homo sapiens, UniProt P00742); assay: Inhibition of human factor 10a
Chain of Coagulation factor X (P00742 41-179 limits assumed): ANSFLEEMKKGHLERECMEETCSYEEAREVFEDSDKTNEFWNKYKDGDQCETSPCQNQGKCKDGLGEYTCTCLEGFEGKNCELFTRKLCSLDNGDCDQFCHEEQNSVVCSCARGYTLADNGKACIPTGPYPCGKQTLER
Chain of Coagulation factor X (P00742 235-488 limits assumed): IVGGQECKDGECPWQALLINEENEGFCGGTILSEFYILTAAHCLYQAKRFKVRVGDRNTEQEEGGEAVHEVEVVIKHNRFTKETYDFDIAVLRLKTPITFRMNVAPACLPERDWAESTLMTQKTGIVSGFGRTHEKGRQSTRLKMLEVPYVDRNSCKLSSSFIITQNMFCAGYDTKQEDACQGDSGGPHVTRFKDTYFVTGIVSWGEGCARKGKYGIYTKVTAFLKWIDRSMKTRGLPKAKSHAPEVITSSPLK

Plasma kallikrein = Plasma kallikrein (Homo sapiens, UniProt P03952); assay: Inhibition of kallikrein
Chain of Plasma kallikrein (P03952 20-390 limits assumed): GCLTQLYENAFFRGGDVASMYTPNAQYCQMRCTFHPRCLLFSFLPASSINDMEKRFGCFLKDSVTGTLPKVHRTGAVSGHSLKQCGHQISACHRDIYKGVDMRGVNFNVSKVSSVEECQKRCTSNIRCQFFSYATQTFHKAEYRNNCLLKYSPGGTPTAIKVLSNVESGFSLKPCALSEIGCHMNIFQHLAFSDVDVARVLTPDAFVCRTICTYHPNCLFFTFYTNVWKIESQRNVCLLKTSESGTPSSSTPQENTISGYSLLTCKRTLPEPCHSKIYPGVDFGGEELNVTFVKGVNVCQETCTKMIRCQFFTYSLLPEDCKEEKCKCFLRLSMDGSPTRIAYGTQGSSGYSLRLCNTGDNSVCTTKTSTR
Chain of Plasma kallikrein (P03952 391-638 limits assumed): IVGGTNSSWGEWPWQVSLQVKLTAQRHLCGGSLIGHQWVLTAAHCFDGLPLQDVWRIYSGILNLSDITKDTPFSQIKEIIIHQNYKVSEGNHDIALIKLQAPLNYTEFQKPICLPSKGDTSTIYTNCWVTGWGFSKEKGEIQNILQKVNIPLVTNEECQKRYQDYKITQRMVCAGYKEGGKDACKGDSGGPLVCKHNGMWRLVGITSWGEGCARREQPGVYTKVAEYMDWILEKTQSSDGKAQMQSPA

[3] = target: Tissue-type plasminogen activator (Homo sapiens, UniProt P00750); assay: Inhibition of tPA
Chain of Tissue-type plasminogen activator (P00750 whole entry): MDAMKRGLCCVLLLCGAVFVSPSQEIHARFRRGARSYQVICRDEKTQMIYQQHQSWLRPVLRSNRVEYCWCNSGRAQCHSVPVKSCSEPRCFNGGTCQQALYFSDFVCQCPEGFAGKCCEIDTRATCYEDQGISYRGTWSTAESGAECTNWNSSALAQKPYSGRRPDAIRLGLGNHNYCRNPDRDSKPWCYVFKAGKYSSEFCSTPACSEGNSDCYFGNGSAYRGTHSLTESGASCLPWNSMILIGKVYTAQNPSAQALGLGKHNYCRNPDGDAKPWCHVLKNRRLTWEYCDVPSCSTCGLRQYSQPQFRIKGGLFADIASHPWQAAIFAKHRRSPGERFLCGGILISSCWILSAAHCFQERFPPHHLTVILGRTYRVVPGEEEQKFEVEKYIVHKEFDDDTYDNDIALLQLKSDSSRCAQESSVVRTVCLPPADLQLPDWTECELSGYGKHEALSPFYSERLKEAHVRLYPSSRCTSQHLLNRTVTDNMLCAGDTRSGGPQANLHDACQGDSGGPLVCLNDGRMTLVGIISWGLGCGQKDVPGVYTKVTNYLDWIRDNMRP

Plasminogen = Plasminogen (Homo sapiens, UniProt P00747); assay: Inhibition of plasmin
Chain of Plasminogen (P00747 97-580 limits assumed): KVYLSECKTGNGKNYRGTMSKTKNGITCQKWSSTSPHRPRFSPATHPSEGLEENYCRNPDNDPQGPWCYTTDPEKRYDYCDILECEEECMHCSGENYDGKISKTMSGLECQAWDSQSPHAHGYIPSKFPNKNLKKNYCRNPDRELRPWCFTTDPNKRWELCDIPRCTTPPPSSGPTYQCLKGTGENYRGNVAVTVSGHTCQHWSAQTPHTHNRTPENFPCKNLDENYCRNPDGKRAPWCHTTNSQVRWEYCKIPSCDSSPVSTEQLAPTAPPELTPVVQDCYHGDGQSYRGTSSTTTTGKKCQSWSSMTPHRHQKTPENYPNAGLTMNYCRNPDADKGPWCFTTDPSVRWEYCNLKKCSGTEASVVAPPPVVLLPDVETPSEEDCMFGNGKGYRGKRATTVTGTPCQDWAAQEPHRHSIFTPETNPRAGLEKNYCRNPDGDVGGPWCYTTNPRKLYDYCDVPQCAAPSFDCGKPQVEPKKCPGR
Chain of Plasminogen (P00747 581-810 limits assumed): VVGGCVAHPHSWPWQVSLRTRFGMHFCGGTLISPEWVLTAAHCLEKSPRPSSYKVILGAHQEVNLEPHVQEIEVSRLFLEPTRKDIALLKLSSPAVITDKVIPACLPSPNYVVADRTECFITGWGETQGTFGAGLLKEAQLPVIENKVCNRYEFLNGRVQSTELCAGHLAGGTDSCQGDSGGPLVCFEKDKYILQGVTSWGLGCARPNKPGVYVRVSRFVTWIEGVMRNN

[4] = Selectivity for human alpha-thrombin over factor 10a
Homo sapiens [5] = organism: Homo sapiens; assay: Selectivity for human alpha-thrombin over human trypsin
[6] = Inhibition of human beta-tryptase
Homo sapiens [7] = organism: Homo sapiens; assay: Selectivity for human beta-tryptase over human alpha thrombin
[8] = target: T1, Trifunctional purine biosynthetic protein adenosine-3 (Homo sapiens, UniProt P22102); assay: Inhibition of human glycinamide ribonucleotide transformylase
T1 sequence (P22102 whole entry): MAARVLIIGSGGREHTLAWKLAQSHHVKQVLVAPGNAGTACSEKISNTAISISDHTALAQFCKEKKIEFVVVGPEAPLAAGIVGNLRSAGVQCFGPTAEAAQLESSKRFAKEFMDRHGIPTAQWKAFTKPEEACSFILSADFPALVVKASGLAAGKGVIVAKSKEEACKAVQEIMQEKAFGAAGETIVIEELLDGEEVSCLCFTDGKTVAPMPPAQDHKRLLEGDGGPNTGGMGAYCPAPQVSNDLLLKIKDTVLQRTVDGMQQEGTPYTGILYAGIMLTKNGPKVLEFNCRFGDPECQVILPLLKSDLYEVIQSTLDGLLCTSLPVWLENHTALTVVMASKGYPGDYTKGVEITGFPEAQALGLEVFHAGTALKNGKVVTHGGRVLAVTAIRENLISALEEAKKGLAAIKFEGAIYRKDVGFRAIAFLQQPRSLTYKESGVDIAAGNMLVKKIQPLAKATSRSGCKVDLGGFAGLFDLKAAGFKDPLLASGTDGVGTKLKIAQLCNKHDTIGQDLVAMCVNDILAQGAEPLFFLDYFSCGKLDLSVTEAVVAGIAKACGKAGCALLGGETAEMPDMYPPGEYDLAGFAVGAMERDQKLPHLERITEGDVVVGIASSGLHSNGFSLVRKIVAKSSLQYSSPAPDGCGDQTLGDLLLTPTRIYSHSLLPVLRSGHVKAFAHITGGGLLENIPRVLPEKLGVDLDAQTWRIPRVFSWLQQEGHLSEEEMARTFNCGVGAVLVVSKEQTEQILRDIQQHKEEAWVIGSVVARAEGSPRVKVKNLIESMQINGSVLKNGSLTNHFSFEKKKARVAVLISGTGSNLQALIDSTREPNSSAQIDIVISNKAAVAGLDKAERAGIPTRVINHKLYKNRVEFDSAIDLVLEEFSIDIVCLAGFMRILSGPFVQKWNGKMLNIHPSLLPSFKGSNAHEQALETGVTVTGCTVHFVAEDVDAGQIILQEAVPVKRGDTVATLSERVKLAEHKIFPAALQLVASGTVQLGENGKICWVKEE

[9] = Selectivity for human alpha-thrombin over bovine trypsin
[10] = Selectivity for human alpha-thrombin over plasmin
[11] = Selectivity for human alpha-thrombin over tissue plasminogen activator
[12] = Selectivity for human alpha-thrombin over uPA
[13] = Selectivity for human chymase over bovine chymotrypsin
[14] = Oral bioavailability in rat; assay type: ADME, organism-based; details: in vivo
[15] = Selectivity for human chymase over cathepsin G
Prothrombin = Prothrombin (Homo sapiens, UniProt P00734); assay: Inhibition of human alpha-thrombin
Coagulation factor VII = Coagulation factor VII (Homo sapiens, UniProt P08709); assay: Inhibition of human factor 7a
Chain of Coagulation factor VII (P08709 61-212 limits assumed): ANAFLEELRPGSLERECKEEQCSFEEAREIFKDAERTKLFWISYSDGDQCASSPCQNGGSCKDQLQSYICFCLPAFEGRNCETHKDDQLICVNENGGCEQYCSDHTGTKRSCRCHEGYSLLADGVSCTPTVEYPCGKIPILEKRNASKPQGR
Chain of Coagulation factor VII (P08709 213-466 limits assumed): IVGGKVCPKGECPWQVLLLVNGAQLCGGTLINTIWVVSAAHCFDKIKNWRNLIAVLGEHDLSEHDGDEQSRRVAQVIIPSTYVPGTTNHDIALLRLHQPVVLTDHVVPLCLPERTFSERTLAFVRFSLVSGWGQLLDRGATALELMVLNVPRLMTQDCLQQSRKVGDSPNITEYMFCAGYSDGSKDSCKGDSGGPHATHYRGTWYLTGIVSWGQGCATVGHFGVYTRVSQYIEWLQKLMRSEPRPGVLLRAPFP

Homo sapiens [16] = organism: Homo sapiens; assay: Selectivity for human recombinant cathepsin S over human cathepsin B
Homo sapiens [17] = organism: Homo sapiens; assay: Selectivity for human recombinant cathepsin S over human recombinant K
Homo sapiens [18] = organism: Homo sapiens; assay: Selectivity for human recombinant cathepsin S over human recombinant L
Trypsin = Trypsin (Homo sapiens, UniProt P07477+P07478+P35030); assay: Inhibition of human trypsin at 100 uM; assay type: protein assay
[19] = Selectivity for human beta-tryptase over kallikrein
[20] = Selectivity for human beta-tryptase over uPA
[21] = Selectivity for human beta-tryptase over trypsin
[22] = Selectivity for human beta-tryptase over plasmin
[23] = Selectivity for rat FAAH over triacylglycerol hydrolase
[24] = Selectivity for rat FAAH over lipoprotein lipase
[25] = Selectivity for rat FAAH over monoacylglycerol lipase
[26] = Selectivity for rat FAAH over carboxylesterase 1 lipase
Complement factor B = Complement factor B (Homo sapiens, UniProt P00751); assay: Inhibition of C3 convertase
Chain of Complement factor B (P00751 whole entry): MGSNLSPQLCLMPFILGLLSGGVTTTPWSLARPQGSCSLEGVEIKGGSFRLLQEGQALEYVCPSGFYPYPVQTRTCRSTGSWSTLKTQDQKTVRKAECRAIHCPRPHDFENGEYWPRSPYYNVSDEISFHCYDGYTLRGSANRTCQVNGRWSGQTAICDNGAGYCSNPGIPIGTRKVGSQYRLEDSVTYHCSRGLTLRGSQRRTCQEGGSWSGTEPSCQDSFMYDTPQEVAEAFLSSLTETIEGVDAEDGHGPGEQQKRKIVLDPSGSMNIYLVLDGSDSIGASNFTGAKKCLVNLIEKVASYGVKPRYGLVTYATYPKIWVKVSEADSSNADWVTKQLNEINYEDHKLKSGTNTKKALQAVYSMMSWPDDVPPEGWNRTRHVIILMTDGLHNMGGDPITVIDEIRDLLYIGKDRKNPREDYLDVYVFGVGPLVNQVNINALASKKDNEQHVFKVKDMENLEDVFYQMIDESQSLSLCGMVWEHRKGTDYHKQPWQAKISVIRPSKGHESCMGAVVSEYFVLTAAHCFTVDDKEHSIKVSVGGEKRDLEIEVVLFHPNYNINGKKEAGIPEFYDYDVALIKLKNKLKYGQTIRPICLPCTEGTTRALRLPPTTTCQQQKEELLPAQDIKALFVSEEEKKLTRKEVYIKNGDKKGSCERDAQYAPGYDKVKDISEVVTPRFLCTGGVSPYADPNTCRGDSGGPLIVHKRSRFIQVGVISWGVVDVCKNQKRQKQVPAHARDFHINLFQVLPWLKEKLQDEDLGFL

Hamster = assay: Efficacy in po dosed hamster acute lung injury model; assay type: functional; details: Cricetinae
[27] = Tmax in rat at 3 mg/kg, po; assay type: ADME, organism-based; set-up: dose 3 mg/kg, route oral; details: in vivo
[28] = Oral bioavailability in rat at 3 mg/kg; assay type: ADME, organism-based; details: in vivo
[29] = Inhibition of HCV NS34A protease; set-up: species or system Hepacivirus hominis
Coagulation factor XII = Coagulation factor XII (Homo sapiens, UniProt P00748); assay: Inhibition of factor 12a
Chain of Coagulation factor XII (P00748 20-372 limits assumed): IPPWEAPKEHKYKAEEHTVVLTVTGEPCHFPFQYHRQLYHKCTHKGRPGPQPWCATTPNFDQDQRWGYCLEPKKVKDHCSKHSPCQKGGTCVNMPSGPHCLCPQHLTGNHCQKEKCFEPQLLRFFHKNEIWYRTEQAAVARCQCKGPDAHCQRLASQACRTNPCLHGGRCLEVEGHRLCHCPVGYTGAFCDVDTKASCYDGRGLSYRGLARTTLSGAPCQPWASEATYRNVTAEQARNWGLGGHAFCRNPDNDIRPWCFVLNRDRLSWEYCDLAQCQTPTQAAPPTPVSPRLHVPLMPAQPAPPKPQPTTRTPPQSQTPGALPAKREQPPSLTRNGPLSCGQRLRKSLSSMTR
Chain of Coagulation factor XII (P00748 373-615 limits assumed): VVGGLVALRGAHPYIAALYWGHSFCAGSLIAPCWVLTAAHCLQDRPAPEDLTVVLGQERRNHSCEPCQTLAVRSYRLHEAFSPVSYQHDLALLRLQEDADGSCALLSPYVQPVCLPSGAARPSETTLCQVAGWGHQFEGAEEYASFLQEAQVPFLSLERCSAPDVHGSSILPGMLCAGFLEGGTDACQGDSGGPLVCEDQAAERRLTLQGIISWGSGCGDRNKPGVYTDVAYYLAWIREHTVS

[30] = Selectivity for human neutrophil elastase over chymotrypsin
[31] = Selectivity for human neutrophil elastase over cathepsinn G
[32] = Selectivity for human neutrophil elastase over trypsin
[33] = target: T2, Fatty-acid amide hydrolase 1 (Rattus norvegicus, UniProt P97612)
T2 sequence (P97612 whole entry): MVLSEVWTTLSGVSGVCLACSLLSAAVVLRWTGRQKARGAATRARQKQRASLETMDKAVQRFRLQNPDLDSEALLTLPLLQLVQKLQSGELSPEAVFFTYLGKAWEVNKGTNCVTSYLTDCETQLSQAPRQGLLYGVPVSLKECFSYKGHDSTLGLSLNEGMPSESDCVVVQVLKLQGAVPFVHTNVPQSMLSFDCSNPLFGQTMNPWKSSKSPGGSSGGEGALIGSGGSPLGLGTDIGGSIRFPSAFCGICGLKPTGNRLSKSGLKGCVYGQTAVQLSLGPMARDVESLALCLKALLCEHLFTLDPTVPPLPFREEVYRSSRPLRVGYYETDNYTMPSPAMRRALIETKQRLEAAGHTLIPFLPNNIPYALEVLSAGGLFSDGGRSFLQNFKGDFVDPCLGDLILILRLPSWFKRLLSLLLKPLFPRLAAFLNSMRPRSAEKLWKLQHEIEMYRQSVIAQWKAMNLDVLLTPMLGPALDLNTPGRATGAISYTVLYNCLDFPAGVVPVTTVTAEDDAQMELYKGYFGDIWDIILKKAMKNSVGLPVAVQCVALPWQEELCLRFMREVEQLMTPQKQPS

[34] = Inhibition of calpain 1 at 10 uM

CC(C)C[C@H](NC(=O)OCc1ccccc1)C(=O)NCC(=O)N1CCC[C@H]1C(=O)c1nc2ccccc2s1
IC50 [1]: 200 nM

O=C(C1=NOC(COCc2ccccc2)C1)[C@@H]1CCCN1C(=O)[C@@H]1CCCN1C(=O)OCc1ccccc1 (stereo not given in full)
Ki [1]: 1.2 nM

CSCCC(N)C(=O)c1ccccn1 (racemic)
IC50 [2]: 16000 nM

CN[C@H](Cc1ccccc1)C(=O)N1CCC[C@H]1C(=O)N[C@@H](CCCNC(=N)N)C(=O)c1nc2ccc(C(=O)O)cc2s1
IC50 (Platelet): 30 nM | ED50 (Canis familiaris): 0.1 mg/kg

COC(=O)c1ccc2oc(C(=O)[C@H](Cc3ccccc3)NC(=O)Cn3c(-c4ccc(F)cc4)ncc(N)c3=O)nc2c1
Ki (Chymase): 23 nM

NC(N)=NCCC[C@H](NC(=O)CNC(=O)[C@@H](CCCN=C(N)N)NS(=O)(=O)CCc1ccccc1)C(=O)c1nc2ccccc2o1
IC50 (Coagulation factor X): 2 nM | IC50 (Plasma kallikrein): 13 nM | IC50 [3]: 29 nM | IC50 (Plasminogen): 36 nM

CCOC(=O)N[C@@H](CCCCN)C(=O)c1noc(Cc2ccc(C(=O)NC3Cc4ccccc4C3)cc2)n1
Selectivity ratio [4]: > 1000 | Selectivity ratio (Homo sapiens [5]): > 50 | Ki [6]: 3 nM | Selectivity ratio (Homo sapiens [7]): > 1000

Nc1nc(N)c(CCCC(c2ccc(C(=O)N[C@@H](CCC(=O)O)C(=O)O)cc2)C(O)c2nc3ccccc3o2)c(=O)[nH]1 (stereo not given in full)
Ki [8]: 1800 nM

CN[C@H](Cc1ccccc1)C(=O)N1CCC[C@H]1C(=O)N[C@@H](CCCN=C(N)N)C(=O)c1nc2ccccc2s1
Ratio Ki [9]: 15 | Selectivity ratio [4]: 2400 | Selectivity ratio [10]: 12000 | Selectivity ratio [11]: 23000 | Selectivity ratio [12]: 23000 | IC50 (Platelet): 30 nM | Ki [6]: 6.5 nM

COC(=O)c1ccc2oc(C(=O)[C@H](Cc3ccccc3)NC(=O)Cn3c(-c4cccc(OC)c4)ncc(N)c3=O)nc2c1
Selectivity ratio [13]: 200 | bioavailability [14]: 20% | Selectivity ratio [15]: 80 | Ki (Chymase): 4.8 nM

CC[C@H](C)[C@H](NC(=O)[C@@H](Cc1ccccc1)NS(=O)(=O)Cc1ccccc1)C(=O)N[C@@H](CCCN=C(N)N)C(=O)c1nccs1
IC50 (Prothrombin): 19000 nM | IC50 (Coagulation factor X): 380 nM | IC50 (Coagulation factor VII): 300 nM

O=C(N[C@H](C(=O)c1nc2ccccc2o1)C1CC1)O[C@@H](CC1CCCCC1)C(=O)N1CCOCC1
Selectivity ratio (Homo sapiens [16]): > 100 | Selectivity ratio (Homo sapiens [17]): > 100 | Selectivity ratio (Homo sapiens [18]): > 100

N=C(N)N1CCC[C@@H](C[C@H](NC(=O)CN2C(=O)CN(CCCc3ccccc3)C(=O)[C@@H]2Cc2ccccc2)C(=O)c2nccs2)C1
inhibition (Trypsin): 80%

CC(=O)N1C[C@H](O)C[C@H]1C(=O)N[C@@H](CCCN=C(N)N)C(=O)c1nc2ccccc2s1
Selectivity ratio [4]: > 500 | Selectivity ratio [10]: > 500 | Selectivity ratio [11]: > 500 | Selectivity ratio [12]: 200 | Ki [6]: 10 nM | Selectivity ratio [19]: 30

CSCCC(N)C(=O)c1nccs1 (racemic)
IC50 [2]: 19000 nM

CCOC(=O)N[C@@H](CCCCN)C(=O)c1noc(Cc2ccc(OCCc3ccccc3)cc2)n1
Selectivity ratio [20]: > 1000 | Selectivity ratio [21]: 35 | Selectivity ratio [22]: 80 | bioavailability [14]: 8% | Ki [6]: 5 nM | Selectivity ratio [19]: > 1000 | Selectivity ratio (Homo sapiens [7]): > 1000

O=C(CCCCCc1ccccc1)c1nc2ncccc2o1
Selectivity ratio [23]: 10 | Selectivity ratio [24]: > 10000 | Selectivity ratio [25]: > 10000 | Selectivity ratio [26]: > 10000

CC[C@H](C)[C@H](N)C(=O)N[C@H]1CSSC[C@@H](C(=O)N[C@H](C(N)=O)[C@@H](C)O)NC(=O)[C@H](CCCN=C(N)N)NC(=O)[C@H](Cc2cnc[nH]2)NC(=O)[C@H](Cc2cnc[nH]2)NC(=O)CNC(=O)[C@H](Cc2c[nH]c3ccccc23)NC(=O)[C@H](CC(=O)O)NC(=O)[C@H](CCC(N)=O)NC(=O)[C@H](C(C)C)NC(=O)[C@H](C(C)C)NC1=O [COMPSTATIN]
IC50 (Complement factor B): 3400 nM

CC(C)C(NC(=O)Cn1c(-c2ccccc2)ncc(N)c1=O)C(=O)c1nnc(C(C)(C)C)o1 (racemic)
ED50 (Hamster): 5.1 mg/kg | Tmax [27]: 36 min | bioavailability [28]: 50%

CC[C@@H](C=O)NC(=O)[C@@H]1C[C@@H](OCc2ccccc2)CN1C(=O)[C@@H](NC(=O)[C@@H](NC(=O)c1cnccn1)C(C)C)C(C)C (Pyrazinecarbonyl-VV[Hyp](Bn)[Abu]-aldehyde)
Ki [29]: 16000 nM

NC(N)=NCCC[C@H](NC(=O)CNC(=O)[C@@H](CCCN=C(N)N)NS(=O)(=O)Cc1ccccc1)C(=O)c1nccs1
IC50 (Coagulation factor XII): 50 nM | IC50 (Plasma kallikrein): 14 nM

Nc1nc(N)c(CCCC(C(=O)c2nc3ccccc3o2)c2ccc(C(=O)N[C@@H](CCC(=O)O)C(=O)O)cc2)c(=O)[nH]1 (stereo not given in full)
Ki [8]: 600 nM

Cc1cccc(Cc2nnc(C(=O)[C@@H](NC(=O)[C@@H]3CCCN3C(=O)[C@@H](NC(=O)OCc3ccccc3)C(C)C)C(C)C)o2)c1
Selectivity ratio [30]: > 1000 | Selectivity ratio [31]: > 1000 | Selectivity ratio [32]: > 1000

O=C(CCCc1ccccc1)c1nc2ncccc2o1
Selectivity ratio [23]: 10 | Selectivity ratio [24]: > 10000 | Selectivity ratio [25]: > 10000 | Selectivity ratio [26]: > 10000 | Ki [33]: 6.9 nM

CC[C@H](NC(=O)[C@@H]1C[C@@H](OCc2ccccc2)CN1C(=O)[C@@H](NC(=O)[C@@H](NC(=O)c1cnccn1)C(C)C)C(C)C)C(=O)c1nnc(-c2ccccc2)o1
Ki [29]: 35000 nM

CC(C)C[C@H](NC(=O)OC(C)(C)C)C(=O)N[C@@H](CC(C)C)C(=O)c1ncc[nH]1
inhibition [34]: 77%

CC(C)C[C@H](NC(=O)OCc1ccccc1)C(=O)N[C@@H](CC(C)C)C(=O)N[C@@H](Cc1ccccc1)C(=O)c1nccs1
inhibition [34]: 54%
